How the values were obtained:
Acetylcholinesterase [1] = target: T1, Acetylcholinesterase (Electrophorus electricus, UniProt O42275); test: Competitive Inhibition of Electrophorus electricus acetylcholinesterase using acetylthiocholine iodide as substrate preincubated for 20 mins followed by substrate addition measured for 30 mins by Ellman's method
Acetylcholinesterase [2] = target: T1, Acetylcholinesterase; test: Uncompetitive Inhibition of Electrophorus electricus acetylcholinesterase using acetylthiocholine iodide as substrate preincubated for 20 mins followed by substrate addition measured for 30 mins by Ellman's method
[3] = Cytotoxicity against mouse NIH/3T3 cells assessed as cell survival after 96 hrs by sulforhodamine-B assay; type: cell-based; details: NIH3T3, 96 h
[4] = Solubility of the compound in aqueous buffer; type: physicochemical
Acetylcholinesterase [5] = target: T1, Acetylcholinesterase; test: Inhibition of Electrophorus electricus acetylcholinesterase using acetylthiocholine iodide as substrate preincubated for 20 mins followed by substrate addition measured for 30 mins by Ellman's method
Cholinesterase = Cholinesterase (Equus caballus, UniProt P81908); test: Inhibition of equine serum butyrylcholinesterase using butyrylthiocholineidioide as substrate preincubated for 20 mins followed by substrate addition measured for 30 mins by Ellman's method
Sequence of Cholinesterase (P81908 whole entry): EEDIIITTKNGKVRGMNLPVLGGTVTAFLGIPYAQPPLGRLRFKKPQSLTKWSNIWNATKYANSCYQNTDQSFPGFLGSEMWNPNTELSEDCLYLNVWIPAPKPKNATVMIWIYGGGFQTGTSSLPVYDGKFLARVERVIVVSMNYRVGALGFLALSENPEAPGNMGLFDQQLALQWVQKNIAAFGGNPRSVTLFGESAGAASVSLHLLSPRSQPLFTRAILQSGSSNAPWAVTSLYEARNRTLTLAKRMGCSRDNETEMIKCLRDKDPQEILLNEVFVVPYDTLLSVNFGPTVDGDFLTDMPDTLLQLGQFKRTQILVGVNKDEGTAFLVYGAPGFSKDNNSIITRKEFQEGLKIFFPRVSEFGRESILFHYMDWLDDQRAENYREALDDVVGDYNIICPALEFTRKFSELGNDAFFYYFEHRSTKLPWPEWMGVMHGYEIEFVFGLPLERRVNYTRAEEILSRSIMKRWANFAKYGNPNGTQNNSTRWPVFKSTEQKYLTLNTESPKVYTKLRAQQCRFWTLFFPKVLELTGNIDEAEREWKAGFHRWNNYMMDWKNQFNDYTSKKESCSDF

T1 sequence (O42275 whole entry): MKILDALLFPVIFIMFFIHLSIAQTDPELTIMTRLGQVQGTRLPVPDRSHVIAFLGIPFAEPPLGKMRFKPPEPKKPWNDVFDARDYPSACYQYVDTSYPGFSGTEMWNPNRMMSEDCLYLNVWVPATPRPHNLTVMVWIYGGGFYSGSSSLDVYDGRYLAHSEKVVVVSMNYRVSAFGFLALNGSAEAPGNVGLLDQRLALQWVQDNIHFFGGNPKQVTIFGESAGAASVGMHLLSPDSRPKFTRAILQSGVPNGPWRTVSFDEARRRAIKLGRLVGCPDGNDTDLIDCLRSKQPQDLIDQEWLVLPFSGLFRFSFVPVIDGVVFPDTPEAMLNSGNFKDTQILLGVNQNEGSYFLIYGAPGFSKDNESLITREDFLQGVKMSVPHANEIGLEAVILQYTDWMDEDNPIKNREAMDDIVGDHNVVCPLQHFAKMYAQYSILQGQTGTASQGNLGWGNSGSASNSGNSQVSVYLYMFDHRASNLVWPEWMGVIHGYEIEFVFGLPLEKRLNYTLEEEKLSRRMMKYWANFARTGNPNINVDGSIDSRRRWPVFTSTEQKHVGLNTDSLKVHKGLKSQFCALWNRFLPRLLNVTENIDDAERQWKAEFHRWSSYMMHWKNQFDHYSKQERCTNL

Row | SMILES | Ki (Acetylcholinesterase [1]) | Ki (Acetylcholinesterase [2]) | EC50 [3] | further results
1 | C#CCOC(=O)CC[C@]1(C)[C@H]2CC[C@@H]3[C@H]4[C@H]5OC[C@@]4(CCC5(C)C)CC[C@@]3(C)[C@]2(C)CC[C@H]1C(=C)C | 3.33 µM | 2.48 µM | > 30 µM | –
2 | C=CCCOC(=O)CC[C@]1(C)[C@H]2CC[C@@H]3[C@H]4[C@H]5OC[C@@]4(CCC5(C)C)CC[C@@]3(C)[C@]2(C)CC[C@H]1C(=C)C | – | – | – | solubility [4]: Insoluble
3 | C#CCOC(=O)C[C@]1(C)[C@H]2CC[C@@H]3[C@H]4[C@H]5OC[C@@]4(CCC5(C)C)CC[C@@]3(C)[C@]2(C)CC[C@H]1C(C)(C)C(=O)OCC#C | 10.5 µM | 4.63 µM | 7 µM | –
4 | C=CCCOC(=O)C[C@]1(C)[C@H]2CC[C@@H]3[C@H]4[C@H]5OC[C@@]4(CCC5(C)C)CC[C@@]3(C)[C@]2(C)CC[C@H]1C(C)(C)C(=O)OCCC=C | – | – | > 30 µM | –
5 | N[C@@H](CO)C(=O)O [SERINE] | – | – | – | IC50 (Acetylcholinesterase [5]): 0.015 µM; IC50 (Cholinesterase): 0.016 µM
6 | C=C(C)[C@@H]1CC[C@]2(C)[C@H](CC[C@@H]3[C@H]4[C@H]5OC[C@@]4(CCC5(C)C)CC[C@]32C)[C@@]1(C)CCC(=O)O | – | – | > 30 µM | Ki (Acetylcholinesterase [5]): 31.8 µM

Source: ChEMBL document CHEMBL3588756, “Allobetulin derived seco-oleananedicarboxylates act as inhibitors of acetylcholinesterase” (Bioorg Med Chem Lett, 2015)
